How the values were obtained:
Assay type in all cases: in vivo
Phytophthora infestans [1] = assay: whole plant or invertebrate; settings: tomato late blight; spray the day before inoculation; compounds without asterisk (not 40 or 10 ppm)
Phytophthora infestans [2] = assay: whole plant or invertebrate; settings: tomato late blight; spray 17 h after inoculation; compounds without asterisk (not 40 or 10 ppm)
[3] = tested on: Erysiphe graminis f. sp. tritici; assay: Test E: wheat powdery mildew, spray the day before inoculation (disease rating, 100 = 100% disease control); settings: spray the day before inoculation, compounds without asterisk (not 40 or 10 ppm)
Procedure, shortened: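 Protective test: spores of E. graminis f. sp. tritici dusted on wheat seedlings one day after run-off spraying of test suspension (acetone/water with 250 ppm surfactant; 200 ppm = 500 g/ha). Ratings after 7 days in growth chamber at 20° C, 100 = full control, 0 = none, relative to controls.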

Plasmopara viticola = assay: Test B: grape downy mildew, spray 24 h after inoculation (disease rating, 100 = 100% disease control); settings: spray 24 h after inoculation, compounds without asterisk (not 40 or 10 ppm)
Procedure, shortened: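 This is a curative spray test, applied 24 h after inoculation. Compounds in 50/50 acetone–water with 250 ppm Trem 014 surfactant were sprayed to run-off on P. viticola-infected seedlings, with 200 ppm equating to 500 g/ha. Plants were kept 5 days in a 20 °C growth chamber, then 24 h humid, and scored 0–100 for disease control relative to controls.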

| Structure (SMILES) | Test C disease rating (100 = 100% disease control, 0 = no disease control) (Phytophthora infestans [1]) [%] | Test D disease rating (100 = 100% disease control, 0 = no disease control) (Phytophthora infestans [2]) [%] | Test E disease rating (100 = 100% disease control, 0 = no disease control) [3] [%] | Test B disease rating (100 = 100% disease control, 0 = no disease control) (Plasmopara viticola) [%] |
| --- | --- | --- | --- | --- |
| Cc1ccc(C)c(CC(=O)N2CCC(c3nc(C(=O)N(C)C(C)c4cc(C)oc4C)cs3)CC2)c1 (stereo not shown) [compound 113] | 97 | 31 | 0 | 0 |
| CC[C@H](c1ccccc1)N(C)C(=O)c1csc(C2CCN(C(=O)Cc3cc(C(F)(F)F)ccc3Cl)CC2)n1 [compound 114] | 100 | 99 | 0 | 99 |
| CC[C@H](c1ccccc1)N(C)C(=O)c1csc(C2CCN(C(=O)Cc3ccccc3OC)CC2)n1 [compound 115] | 100 | 99 | 0 | 100 |
| CC[C@H](c1ccccc1)N(C)C(=O)c1csc(C2CCN(C(=O)Cc3cccc(C)c3)CC2)n1 [compound 116] | 49 | 87 | 0 | 100 |
| CC[C@H](c1ccccc1)N(C)C(=O)c1csc(C2CCN(C(=O)Cn3nc(C)cc3C)CC2)n1 [compound 118] | 100 | 99 | 0 | 99 |
| Cc1nc(C)n(CC(=O)N2CCC(c3nc(C(=O)N(C)[C@H](C)c4ccccc4)cs3)CC2)n1 [compound 120] | 51 | 100 | 0 | 7 |
| Cc1cn(CC(=O)N2CCC(c3nc(C(=O)N(C)[C@H](C)c4ccccc4)cs3)CC2)c(C)n1 [compound 121] | 47 | 0 | 0 | 0 |
| C[C@H](c1ccccc1)N(C)C(=O)c1csc(C2CCN(C(=O)Cn3cnc(C(F)(F)F)n3)CC2)n1 [compound 122] | 53 | 96 | 17 | 28 |
| CCCc1nc(C(F)(F)F)cn1CC(=O)N1CCC(c2nc(C(=O)N(C)[C@H](C)c3ccccc3)cs2)CC1 [compound 123] | 100 | 47 | 7 | 13 |
| Cc1cc(C(C)C)nn1CC(=O)N1CCC(c2nc(C(=O)N(C)[C@H](C)c3ccccc3)cs2)CC1 [compound 127] | 92 | 0 | 0 | 0 |
| CCc1nc(C)cn1CC(=O)N1CCC(c2nc(C(=O)N(C)[C@H](C)c3ccccc3)cs2)CC1 [compound 128] | 0 | 0 | 0 | 0 |
| Cc1ccc(C)c(CC(=O)N2CCC(c3nc(C(=O)N(C)C4CCCCc5ccccc54)cs3)CC2)c1 (stereo not shown) [compound 129] | 50 | 57 | 0 | 0 |
| Cc1ccc(C)c(CC(=O)N2CCC(c3nc(C(=O)N(C)[C@@H]4CCc5ccccc54)cs3)CC2)c1 [compound 130] | 54 | 100 | 0 | 99 |
| Cc1ccc(C)c(CC(=O)N2CCC(c3nc(C(=O)N(C)[C@H]4CCc5ccccc54)cs3)CC2)c1 [compound 131] | 55 | 62 | 0 | 77 |
| Cc1ccc(C)c(CC(=O)N2CCC(c3nc(C(=O)N(C)[C@H]4CCCc5ccccc54)cs3)CC2)c1 [compound 133] | 53 | 79 | 0 | 77 |
| Cc1ccc(C)c(CC(=O)N2CCC(c3nc(C(=O)N(C)C4CCCc5sccc54)cs3)CC2)c1 (stereo not shown) [compound 134] | 51 | 100 | 0 | 97 |
| Cc1ccc(C)c(CC(=O)N2CCC(c3nc(C(=O)N(C)C4CCCc5occc54)cs3)CC2)c1 (stereo not shown) [compound 135] | 51 | 47 | 0 | 16 |
| Cc1ccc(C)c(CC(=O)N2CCC(c3nc(C(=O)N(C)C4CCSc5ccccc54)cs3)CC2)c1 (stereo not shown) [compound 136] | 100 | 80 | 0 | 77 |
| Cc1ccc(C)c(CC(=O)N2CCC(c3nc(C(=O)N(C)C4CCOc5ccccc54)cs3)CC2)c1 (stereo not shown) [compound 137] | 51 | 93 | 0 | 100 |
| Cc1ccc(C)c(CC(=O)N2CCC(c3nc(C(=O)N(C)C4COc5ccccc54)cs3)CC2)c1 (stereo not shown) [compound 138] | 100 | 37 | 44 | 91 |
| CC(C)c1nccn1CC(=O)N1CCC(c2nc(C(=O)N(C)[C@H](C)c3ccccc3)cs2)CC1 [compound 139] | 0 | 0 | 0 | 0 |
| C[C@H](c1ccccc1)N(C)C(=O)c1csc(C2CCN(C(=O)Cn3cnc(C4CCCCC4)n3)CC2)n1 [compound 140] | 0 | 0 | 0 | 0 |
| C[C@H](c1ccccc1)N(C)C(=O)c1csc(C2CCN(C(=O)Cn3cnc(C(C)(C)C)c3)CC2)n1 [compound 141] | 0 | 0 | 0 | 0 |
| CCC(C)c1cc(C)n(CC(=O)N2CCC(c3nc(C(=O)N(C)[C@H](C)c4ccccc4)cs3)CC2)n1 (stereo partly shown) [compound 142] | 0 | 0 | 87 | 0 |
| COc1ccccc1NC(=O)N1CCC(c2nc(C(=O)N(C)[C@H](C)c3ccccc3)co2)CC1 [compound 157] | 100 | 91 | 0 | 63 |
| CN(Cc1cccnc1)C(=O)c1csc(C2CCN(C(=O)Cc3cccc(C(F)(F)F)c3)CC2)n1 [compound 163] | 55 | 0 | 0 | 24 |
| Cc1cccc(CC(=O)N2CCC(c3nc(C(=O)N(C)Cc4cccnc4)cs3)CC2)c1 [compound 164] | 60 | 0 | 0 | 1 |
| Cc1cccc(CC(=O)N2CCC(c3nc(C(=O)N(C)Cc4ccccn4)cs3)CC2)c1 [compound 165] | 14 | 0 | 0 | 11 |

From patent US8586611B2 (priority 2005, dated 2013)
